From patent publication US9938279B2, “Method for treating disease or condition susceptible to amelioration by AMPK activators and compounds of formula which are useful to activate AMP-activated protein kinase (AMPK)” (ENERGENESIS BIOMEDICAL CO., LTD, priority 2013, dated 2018)

Columns and labels:
AMPK [1] = test: AMPK activation assay (western blot phospho-AMPK Thr172) in C2C12; format: cell-based, mouse; details: C2C12 cells, 30 min treatment
Method in brief: (§1)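 Mouse C2C12, mouse 3T3-L1 and human Hep G2 cells in high-glucose DMEM/10% FBS were treated with compounds for 30 min, 24 h after plating. Lysates were western-blotted for phospho-AMPK (Thr172) and total AMPK, ECL-detected, and bands quantified by densitometry.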

AMPK [2] = test: AMPK activation assay (western blot phospho-AMPK Thr172) in 3T3-L1; format: cell-based, mouse; details: 3T3-L1 cells, 30 min treatment
Method in brief: as §1

AMPK [3] = test: AMPK activation assay (western blot phospho-AMPK Thr172) in Hep G2; format: cell-based, human; details: Hep G2 cells, 30 min treatment
Method in brief: as §1

muscle cell C2C12 = test: Glucose uptake in vitro (fluorescent glucose analog 2-NBDG); format: cell-based, mouse; details: 30 min treatment, mean±SEM of three experiments
Experimental: Effects of representative compounds on glucose uptake were analyzed in muscle cell C2C12 by using fluorescent glucose analog (2-NBDG, Molecular Probes). C2C12 were treated with selected novel AMPK activator for 30 min at 37° C. then exposed to 500 μM of fluorescent glucose analog. After 5 min incubation at room temperature, cells were washed three times with Kreb-Hepes buffered solution and fix in 70% alcohol. The fluorescence of glucose analog in cells was detected using a Fluorescence Microplate Reader System at 480-nm excitation and 530-nm emission wavelength.
Data are presented as the mean±SEM of three independent experiments.

| Structure (SMILES) | AMPK activation (% to control) C2C12 (AMPK [1]; 1 microM) | AMPK activation (% to control) C2C12 (AMPK [1]; 10 microM) | AMPK activation (% to control) C2C12 (AMPK [1]; 100 microM) | AMPK activation (% to control) C2C12 (AMPK [1]; 200 microM) | AMPK activation (% to control) 3T3-L1 (AMPK [2]; 1 microM) | AMPK activation (% to control) 3T3-L1 (AMPK [2]; 10 microM) | AMPK activation (% to control) 3T3-L1 (AMPK [2]; 100 microM) | AMPK activation (% to control) 3T3-L1 (AMPK [2]; 200 microM) | AMPK activation (% to control) Hep G2 (AMPK [3]; 1 microM) | AMPK activation (% to control) Hep G2 (AMPK [3]; 10 microM) | AMPK activation (% to control) Hep G2 (AMPK [3]; 100 microM) | AMPK activation (% to control) Hep G2 (AMPK [3]; 200 microM) | Glucose uptake (% to control) (muscle cell C2C12; C2C12, 1 microM) | Glucose uptake (% to control) (muscle cell C2C12; C2C12, 10 microM) | Glucose uptake (% to control) (muscle cell C2C12; C2C12, 100 microM) | Glucose uptake (% to control) (muscle cell C2C12; C2C12, 600 microM) | AMPK activation (% to control) C2C12 (AMPK [1]; 1200 microM) | AMPK activation (% to control) 3T3-L1 (AMPK [2]; 1200 microM) | AMPK activation (% to control) Hep G2 (AMPK [3]; 1200 microM) | Glucose uptake (% to control) (muscle cell C2C12; C2C12, 1200 microM) |
| --- | --- | --- | --- | --- | --- | --- | --- | --- | --- | --- | --- | --- | --- | --- | --- | --- | --- | --- | --- | --- |
| Cc1ccc(CNc2ncnc3nc[nH]c23)cc1 [6-(4-methylbenzylamino)purine] | 112 % to control | 158 % to control | 270 % to control | 358 % to control | 110 % to control | 163 % to control | 259 % to control | 347 % to control | 106 % to control | 121 % to control | 245 % to control | 348 % to control | 114 ± 9.2 % to control | 205 ± 14.6 % to control | 281 ± 11.5 % to control | 309 ± 9.1 % to control | – | – | – | – |
| Oc1ncnc2nc[nH]c12 [6-hydroxypurine] | 120 % to control | 148 % to control | 233 % to control | 341 % to control | 118 % to control | 155 % to control | 198 % to control | 325 % to control | 114 % to control | 146 % to control | 165 % to control | 330 % to control | 109 ± 2.2 % to control | 242 ± 23.7 % to control | 289 ± 21.4 % to control | 318 ± 21.2 % to control | – | – | – | – |
| NC(=O)c1ncn([C@@H]2O[C@H](CO)[C@@H](O)[C@H]2O)c1N [AICAR, 5-amino-1-β-D-ribofuranosyl-imidazole-4-carboxamide, reference compound] | – | – | – | – | – | – | – | – | – | – | – | – | – | – | – | – | 335 % to control | 340 % to control | 319 % to control | 264 ± 19.2 % to control |
| Cc1c[nH]c(=O)[nH]c1=O [Thymine, thymine] | 117 % to control | 147 % to control | 266 % to control | 354 % to control | 109 % to control | 129 % to control | 235 % to control | 318 % to control | 110 % to control | 113 % to control | 218 % to control | 303 % to control | 110 ± 3.2 % to control | 167 ± 15.1 % to control | 215 ± 18.2 % to control | 283 ± 22.3 % to control | – | – | – | – |
